The values that follow come from patent US20230085307A1, “PYRIDAZINONE COMPOUND AND HERBICIDE” (NISSAN CHEMICAL CORPORATION, priority 2019, published 2023).

Assay [1] deals with late watergrass. Briefly: Test Example 1: herbicidal activity, application before weed generation under submerged conditions (Table 16, symbol A). Conditions: amount of applied herbicide 320 g/ha. The assay is classed as in vivo, late watergrass (Echinochloa oryzicola). The method, boiled down: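 Submerged Wagner pots (alluvial soil, 4 cm water) sown with weed seeds and planted with 2.5-leaf rice seedlings; emulsifiable concentrate diluted in water applied to water surface on sowing day. Held in greenhouse at 25-30 °C; injury scored 0-5 by herbicidal rate after three weeks.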

Assay [2] relates to late watergrass. Briefly: Test Example 2: herbicidal activity, application during weed generation under submerged conditions (Table 17, symbol A). The assay is classed as in vivo, late watergrass (Echinochloa oryzicola). Conditions: AAH 320 g/ha; application during weed generation, submerged conditions. Put shortly: (§1)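 Alluvial soil in Wagner pots was flooded to 4 cm depth and sown with the three weeds together; pots were kept in a greenhouse at 25° C. to 30° C. At the one to two leaf stage, an emulsion formulation diluted in water to a set rate went onto the water surface; scored three weeks later.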

In a further assay the test system is Japanese bulrush. Briefly: Test Example 2: herbicidal activity, application during weed generation under submerged conditions (Table 17, symbol B). The assay is classed as in vivo, Japanese bulrush (Schoenoplectus juncoides). The settings on record: AAH 320 g/ha; application during weed generation, submerged conditions. Put shortly: as §1
A further assay has as its system oval-leafed pondweed. The assay can be described thus: Test Example 2: herbicidal activity, application during weed generation under submerged conditions (Table 17, symbol C). The settings on record: AAH 320 g/ha; application during weed generation, submerged conditions. The assay is classed as in vivo, oval-leafed pondweed (Monochoria vaginalis). The method, boiled down: as §1

For a further assay, the system named is rice flat sedge. The assay can be described thus: Test Example 3: herbicidal effect by foliage application, Wagner pot (Table 18, symbol E). It counts as in vivo, rice flat sedge (Cyperus iria). Conditions: 320 g/ha. The method, boiled down: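 Plants were sown in alluvial soil held under 0.1–0.5 cm standing water and grown 14 days in a greenhouse at 25–30 °C. An emulsifiable formulation, water-diluted to the set dose, was then sprayed onto the foliage, and effects were scored three weeks later using previously defined criteria.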

The subject of assay [3] is green foxtail. The assay can be described thus: Test Example 4: herbicidal effect by soil treatment (Table 19, symbol G). It counts as in vivo, green foxtail (Setaria viridis). Conditions: amount of applied herbicide 320 g/ha. The method, boiled down:
(§2)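 Seeds were sown in sterilized diluvial soil and covered with about 1.5 cm of soil. An emulsion formulation diluted with water to a predetermined herbicide amount was sprayed evenly onto the soil surface. Plants grew in a greenhouse at 25° C. to 30° C., and the effect was scored three weeks after application using criteria from an earlier test.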

The test system of another assay is barnyard grass. Briefly: Test Example 4: herbicidal effect by soil treatment (Table 19, symbol H). Conditions: amount of applied herbicide 320 g/ha. It counts as in vivo, barnyard grass (Echinochloa crus-galli). Put shortly:
as §2

The test system of a further assay is windgrass. Briefly: Test Example 4: herbicidal effect by soil treatment (Table 19, symbol L). The assay is classed as in vivo, windgrass (Apera spica-venti). Conditions: amount of applied herbicide 320 g/ha. Put shortly:
as §2

Assay [4] relates to velvetleaf. The assay can be described thus: Test Example 4: herbicidal effect by soil treatment (Table 19, symbol M). The assay is classed as in vivo, velvetleaf (Abutilon theophrasti). The settings on record: amount of applied herbicide 320 g/ha. Put shortly:
as §2

A further assay concerns lambsquarters. The assay can be described thus: Test Example 4: herbicidal effect by soil treatment (Table 19, symbol O). Conditions: amount of applied herbicide 320 g/ha. The assay is classed as in vivo, lambsquarters (Chenopodium album). Put shortly: as §2
Assay [5] relates to chickweed. Briefly: Test Example 4: herbicidal effect by soil treatment (Table 19, symbol P). It counts as in vivo, common chickweed (Stellaria media). Conditions: amount of applied herbicide 320 g/ha. Put shortly:
as §2

In another assay the test system is persian speedwell. Briefly: Test Example 4: herbicidal effect by soil treatment (Table 19, symbol R). It counts as in vivo, Persian speedwell (Veronica persica). The settings on record: amount of applied herbicide 320 g/ha. Put shortly: as §2
Assay [6] deals with green foxtail. The assay can be described thus: Test Example 5: herbicidal effect by foliage application, plastic box (Table 20, symbol G). The assay is classed as in vivo, green foxtail (Setaria viridis). Conditions: foliage application, 320 g/ha, three weeks after application. Put shortly: (§3)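 Plants sown in sterilized diluvial soil and grown 14 days in a greenhouse at 25° C to 30° C, then sprayed on the foliage with the compound's emulsion diluted in water to a predetermined herbicide amount. Injury to weeds and crops scored three weeks after application on a visual rating scale.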

The next assay concerns Italian ryegrass. The assay can be described thus: Test Example 5: herbicidal effect by foliage application, plastic box (Table 20, symbol K). The assay is classed as in vivo, Italian ryegrass (Lolium multiflorum). The settings on record: foliage application, 320 g/ha, three weeks after application. The method, boiled down:
as §3

Assay [7] concerns velvetleaf. Briefly: Test Example 5: herbicidal effect by foliage application, plastic box (Table 20, symbol M). It counts as in vivo, velvetleaf (Abutilon theophrasti). Conditions: foliage application, 320 g/ha, three weeks after application. The method, boiled down:
as §3

In the next assay the test system is redroot pigweed. Briefly: Test Example 5: herbicidal effect by foliage application, plastic box (Table 20, symbol N). The assay is classed as in vivo, redroot pigweed (Amaranthus retroflexus). Conditions: foliage application, 320 g/ha, three weeks after application. Put shortly:
as §3

In assay [8] the test system is chickweed. The assay can be described thus: Test Example 5: herbicidal effect by foliage application, plastic box (Table 20, symbol P). The assay is classed as in vivo, common chickweed (Stellaria media). Conditions: foliage application, 320 g/ha, three weeks after application. Put shortly:
as §3

Molecules are shown by their SMILES.

Turning to `CCCC(=O)Oc1c(C)nn(C)c(=O)c1-c1c(-c2ccc(F)cc2OCC)sc2cc(OC)ccc12` [3-079], the “Herbicidal effect, A: late watergrass” value in the assay on late watergrass [1] is recorded as 5 (Herbicidal rate of 90% or more (almost completely withered)). In addition, the “herbicidal effect rating, A: late watergrass” value with late watergrass [2] is given as 5 (Herbicidal rate of 90% or more (almost completely withered)). The “herbicidal effect rating, B: Japanese bulrush” value in the assay on Japanese bulrush is reported as 5 (Herbicidal rate of 90% or more (almost completely withered)). The “herbicidal effect rating, C: oval-leafed pondweed” value in the assay with oval-leafed pondweed is 5 (Herbicidal rate of 90% or more (almost completely withered)). Moreover, in the assay on rice flat sedge, the “herbicidal effect on rice flat sedge (E)” value is listed as 5 (Herbicidal rate of 90% or more (almost completely withered)). The “G: green foxtail, herbicidal effect grade” value in the assay on green foxtail [3] was 1 (Herbicidal rate of 5% or more and less than 20%); in the assay with green foxtail [6] it was 5 (Herbicidal rate of 90% or more (almost completely withered)). Moreover, in the assay on barnyard grass, the “H: barnyard grass, herbicidal effect grade” value is 0 (Herbicidal rate of 5% or less (almost no effect)). For the same compound, the “L: windgrass, herbicidal effect grade” value with windgrass is 3 (Herbicidal rate of 40% or more and less than 70%). Also, the “M: velvetleaf, herbicidal effect grade” value in the assay on velvetleaf [4] is 3 (Herbicidal rate of 40% or more and less than 70%); in the assay on velvetleaf [7], 5 (Herbicidal rate of 90% or more (almost completely withered)). The “O: lambsquarters, herbicidal effect grade” value in the assay on lambsquarters was 3 (Herbicidal rate of 40% or more and less than 70%). In addition, the “P: chickweed, herbicidal effect grade” value in the assay with chickweed [5] was 4 (Herbicidal rate of 70% or more and less than 90%); in the assay with chickweed [8], 5 (Herbicidal rate of 90% or more (almost completely withered)). In the assay on persian speedwell, the “R: persian speedwell, herbicidal effect grade” value is 5 (Herbicidal rate of 90% or more (almost completely withered)). Further, in the assay with Italian ryegrass, the “K: Italian ryegrass, herbicidal effect grade” value is 4 (Herbicidal rate of 70% or more and less than 90%). Moreover, the “N: redroot pigweed, herbicidal effect grade” value in the assay on redroot pigweed was 4 (Herbicidal rate of 70% or more and less than 90%).

As to `COc1ccc2c(-c3c(O)c(C)nn(C)c3=O)c(-c3ccc4c(c3)OCCO4)sc2c1` [3-082], the “Herbicidal effect, A: late watergrass” value in the assay on late watergrass [1] was 3 (Herbicidal rate of 40% or more and less than 70%). In the assay with late watergrass [2], the “herbicidal effect rating, A: late watergrass” value was 2 (Herbicidal rate of 20% or more and less than 40%). Besides, in the assay on Japanese bulrush, the “herbicidal effect rating, B: Japanese bulrush” value is 1 (Herbicidal rate of 5% or more and less than 20%). For the same compound, the “herbicidal effect rating, C: oval-leafed pondweed” value in the assay with oval-leafed pondweed is 3 (Herbicidal rate of 40% or more and less than 70%). The “herbicidal effect on rice flat sedge (E)” value in the assay on rice flat sedge is on record as 5 (Herbicidal rate of 90% or more (almost completely withered)). Moreover, the “G: green foxtail, herbicidal effect grade” value in the assay with green foxtail [3] is 0 (Herbicidal rate of 5% or less (almost no effect)); in the assay with green foxtail [6], 3 (Herbicidal rate of 40% or more and less than 70%). In addition, in the assay with barnyard grass, the “H: barnyard grass, herbicidal effect grade” value is listed as 0 (Herbicidal rate of 5% or less (almost no effect)). Further, the “L: windgrass, herbicidal effect grade” value with windgrass is on record as 0 (Herbicidal rate of 5% or less (almost no effect)). In addition, the “M: velvetleaf, herbicidal effect grade” value is 0 (Herbicidal rate of 5% or less (almost no effect)) in the assay with velvetleaf [4]; 3 (Herbicidal rate of 40% or more and less than 70%) in the assay with velvetleaf [7]. Moreover, the “O: lambsquarters, herbicidal effect grade” value in the assay on lambsquarters is 0 (Herbicidal rate of 5% or less (almost no effect)). The “P: chickweed, herbicidal effect grade” value was 4 (Herbicidal rate of 70% or more and less than 90%) in the assay with chickweed [5]; 5 (Herbicidal rate of 90% or more (almost completely withered)) in the assay on chickweed [8]. In the assay with persian speedwell, the “R: persian speedwell, herbicidal effect grade” value is 5 (Herbicidal rate of 90% or more (almost completely withered)). Moreover, the “K: Italian ryegrass, herbicidal effect grade” value in the assay with Italian ryegrass was 3 (Herbicidal rate of 40% or more and less than 70%). For the same compound, in the assay with redroot pigweed, the “N: redroot pigweed, herbicidal effect grade” value is 5 (Herbicidal rate of 90% or more (almost completely withered)).
